Assay results as given in patent publication US10626364B2, “Method for increasing the glutathione level in cells” (Merck Patent GmbH, priority 2015, dated 2020).

Key:
Format in all cases: cell-based
[1] = test system: CHO suspension cell line; test: Bioreactor fed-batch experiment, IgG concentration in the supernatant (Cedex BioHT, turbidometric method); conditions: 15 mM SS in neutral pH main Feed-220, compared to standard (150 mM L-cysteine in separate alkaline feed); FIG. 1
Experimental: Bioreactor Fed-Batch Experiment in Cellvento® CHO 220 Medium and Feed 220 Using a CHO Suspension Cell Line in 1.2 L Glass Bioreactors.
15 mM S-sulfo-L-cysteine (SS) was integrated in the neutral pH main Feed-220 (n=5). Feed was added at 3% (v/v) at day 3 and 6% (v/v) at days 5, 7, 9 and 14. In the control condition, the feed without SS was added at the same ratios whereas 150 mM L-cysteine was added separately in an alkaline feed and added at following ratios 0.3% (v/v) at day 3 and 6% (v/v) at days 5, 7, 9, 14 (n=2). pH was controlled at 6.95+/−0.15. Dissolved oxygen concentration was controlled at 50% air saturation by sparging with pure oxygen and air via an open pipe sparger. Temperature was set at 37° C. and shifted from 37° C. to 33° C. on day 5 of culture. Agitation was maintained at 140 rpm. The IgG concentration in the supernatant was measured using the Cedex BioHT with a turbidometric method. It can be seen that the titer (IgG concentration) is higher with SS compared to standard.

[2] = test system: CHO cells; test: Intracellular reactive species in fed-batch, Carboxy-H2DCFDA staining; conditions: 15 mM SSC condition vs control condition, FIG. 2
Experimental: Intracellular Reactive Species in CHO Cells in a Fed-Batch Using S-Sulfocysteine Vs the Control Process
Intracellular reactive species were quantified using 6-carboxy-2′,7′-dichlorodihydrofluorescein diacetate staining (Carboxy H2DCFDA, Life Technologies). The increase in fluorescence due to oxidative reactions was determined using a Perkin Elmer fluorescence reader. For these experiments, measurements were done during fed batch experiments comparing the control condition and 15 mM SSC condition. Samples were taken every day and analyzed immediately. Briefly, 3×10^5 cells were centrifuged (1200 rpm, 5 min) and either resuspended in PBS (negative control) or loaded with 50 μM Carboxy-H2DCFDA and incubated for 20 min at 37° C. and 1000 rpm. Cells were then centrifuged, resuspended in PBS and analyzed using the plate reader (n=3 for both conditions).

[3] = test system: CHO cells; test: Intracellular total glutathione (GSH and GSSG) during fed-batch, UPLC; conditions: equivalent amounts of cysteine or S-sulfocysteine, compared to cells with cysteine
Experimental: Intracellular Total Glutathione in CHO Cells During a Fed-Batch Using S-Sulfocysteine Vs the Control Process
To quantify intracellular total glutathione, cells were washed three times in cold PBS and frozen at −20° C. for further analysis. To inhibit the activity of potential Cys-converting enzymes, 12×10^6 cells were lysed in 100 μl of phosphoSafe reagent (Merck Millipore) containing four phosphatase inhibitors: sodium fluoride, sodium vanadate, β-glycerophosphate and sodium pyrophosphate and supplemented with 20 mM iodoacetamide (alkylation of all enzyme containing one cysteine in the active site). The glutathione concentrations (GSH and GSSG) were determined via UPLC using a pre-column derivatization relying on AccQ Tag Ultra® reagent kit. Derivatization, chromatography and data analysis were carried out following the supplier recommendations (Waters, Milford, Mass.). Total glutathione was obtained by addition of GSH and GSSG and normalized to the concentration obtained in the control condition each day of the FB process.

Compound: N[C@H](CSS(=O)(=O)O)C(=O)O [S-sulfocysteine, (S)-2-amino-3-sulfosulfanylpropanoic acid]
- titer (IgG concentration) [1]: higher
- fluorescence intensity (intracellular reactive species) [2]: lower fluorescence intensity
- amount of GSH in cells [3]: higher amount of GSH
